# How the values were obtained:
# Test in all cases: NCI 60 cell line single dose screen
# Format in all cases: cell-based, human
# OVCAR-8 = OVCAR-8 (Ovarian Cancer), 10 micromolar, 48 h
# From the text: (§1) Analog 10 was screened utilizing 60 different human tumor cell lines, representing leukemia, melanoma and cancers of the lung, colon, brain, ovary, breast, prostate, and kidney in order to show selective growth inhibition or cell killing of particular tumor cell lines. This screen is unique in that the complexity of a 60 cell line dose response produced by a given compound results in a biological response pattern which can be utilized in pattern recognition algorithms (COMPARE program. See: http://dtp.nci.nih.gov/docs/compare/compare.html). Using these algorithms, it is possible to assign a putative mechanism of action to a test compound, or to determine that the response pattern is unique and not similar to that of any of the standard prototype compounds included in the NCI database. In addition, following characterization of various cellular molecular targets in the 60 cell lines, it may be possible to select compounds most likely to interact with a specific molecular target.
# (§2) The screening is a two-stage process, beginning with the evaluation of the compound against the 60 cell lines at a single dose of 10 uM.
# (§3) The human tumor cell lines of the cancer screening panel are grown in RPMI 1640 medium containing 5% fetal bovine serum and 2 mM L-glutamine. For a typical screening experiment, cells are inoculated into 96 well microtiter plates in 100 μL at plating densities ranging from 5,000 to 40,000 cells/well depending on the doubling time of individual cell lines. After cell inoculation, the microtiter plates are incubated at 37° C., 5% CO2, 95% air and 100% relative humidity for 24 h prior to addition of experimental drug.
# (§4) After 24 h, two plates of each cell line are fixed in situ with TCA, to represent a measurement of the cell population for each cell line at the time of drug addition (Tz). Experimental drugs are solubilized in dimethyl sulfoxide at 400-fold the desired final maximum test concentration and stored frozen prior to use. At the time of drug addition, an aliquot of frozen concentrate is thawed and diluted to twice the desired final maximum test concentration with complete medium containing 50 μg/ml gentamicin.
# (§5) Following drug addition, the plates are incubated for an additional 48 h at 37° C., 5% CO2, 95% air, and 100% relative humidity. For adherent cells, the assay is terminated by the addition of cold TCA. Cells are fixed in situ by the gentle addition of […] of cold 50% (w/v) TCA (final concentration, 10% TCA) and incubated for 60 minutes at 4° C. The supernatant is discarded, and the plates are washed five times with tap water and air dried. Sulforhodamine B (SRB) solution (100 μl) at 0.4% (w/v) in 1% acetic acid is added to each well, and plates are incubated for 10 minutes at room temperature. After staining, unbound dye is removed by washing five times with 1% acetic acid and the plates are air dried. Bound stain is subsequently solubilized with 10 mM trizma base, and the absorbance is read on an automated plate reader at a wavelength of 515 nm. For suspension cells, the methodology is the same except that the assay is terminated by fixing settled cells at the bottom of the wells by gently adding 50 μl of 80% TCA (final concentration, 16% TCA). Using the absorbance measurements [time zero, (Tz), control growth, (C), and test growth in the presence of drug (Ti)], the percentage growth is calculated.
# HT29 = HT29 (Colon Cancer), 10 micromolar, 48 h
# From the text: as §1, §2, §3, §4, §5
# SF-539 = SF-539 (CNS Cancer), 10 micromolar, 48 h
# From the text: as §1, §2, §3, §4, §5
# ACHN = ACHN (Renal Cancer), 10 micromolar, 48 h
# From the text: as §1, §2, §3, §4, §5
# OVCAR-4 = OVCAR-4 (Ovarian Cancer), 10 micromolar, 48 h
# From the text: as §1, §2, §3, §4, §5
# 786-0 = 786-0 (Renal Cancer), 10 micromolar, 48 h
# From the text: as §1, §2, §3, §4, §5
# U251 = U251 (CNS Cancer), 10 micromolar, 48 h
# From the text: as §1, §2, §3, §4, §5
# T-47D = T-47D (Breast Cancer), 10 micromolar, 48 h
# From the text: as §1, §2, §3, §4, §5
# SF-268 = SF-268 (CNS Cancer), 10 micromolar, 48 h
# From the text: as §1, §2, §3, §4, §5
# HCT-15 = HCT-15 (Colon Cancer), 10 micromolar, 48 h
# From the text: as §1, §2, §3, §4, §5
# M14 = M14 (Melanoma), 10 micromolar, 48 h
# From the text: as §1, §2, §3, §4, §5
# NCI-H322M = NCI-H322M (Non-Small Cell Lung Cancer), 10 micromolar, 48 h
# From the text: as §1, §2, §3, §4, §5
# HS 578T = HS 578T (Breast Cancer), 10 micromolar, 48 h
# From the text: as §1, §2, §3, §4, §5
# SN12C = SN12C (Renal Cancer), 10 micromolar, 48 h
# From the text: as §1, §2, §3, §4, §5
# DU-145 = DU-145 (Prostate Cancer), 10 micromolar, 48 h
# From the text: as §1, §2, §3, §4, §5
# A498 = A498 (Renal Cancer), 10 micromolar, 48 h
# From the text: as §1, §2, §3, §4, §5
# UACC-62 = UACC-62 (Melanoma), 10 micromolar, 48 h
# From the text: as §1, §2, §3, §4, §5
# OVCAR-5 = OVCAR-5 (Ovarian Cancer), 10 micromolar, 48 h
# From the text: as §1, §2, §3, §4, §5
# NCI-H226 = NCI-H226 (Non-Small Cell Lung Cancer), 10 micromolar, 48 h
# From the text: as §1, §2, §3, §4, §5
# SNB-75 = SNB-75 (CNS Cancer), 10 micromolar, 48 h
# From the text: as §1, §2, §3, §4, §5
# CCRF-CEM = CCRF-CEM (Leukemia), 10 micromolar, 48 h
# From the text: as §1, §2, §3, §4, §5
compound,measurement,setting,value
COCCC(=O)NC[C@H](O)[C@H](C)C(=O)NCCC[C@H]1O[C@@]2(CCC[C@@H](CC[C@H](C)/C=C(\C)[C@H](C)O)O2)CCC1C (stereo partly drawn) [Analog 10],Growth Percent,OVCAR-8,90.22%
same,Growth Percent,HT29,30.53%
same,Growth Percent,SF-539,40.64%
same,Growth Percent,ACHN,51.57%
same,Growth Percent,OVCAR-4,45.16%
same,Growth Percent,786-0,50.94%
same,Growth Percent,U251,50.08%
same,Growth Percent,T-47D,71.80%
same,Growth Percent,SF-268,37.08%
same,Growth Percent,HCT-15,58.89%
same,Growth Percent,M14,71.74%
same,Growth Percent,NCI-H322M,113.58%
same,Growth Percent,HS 578T,46.51%
same,Growth Percent,SN12C,57.59%
same,Growth Percent,DU-145,54.89%
same,Growth Percent,A498,1.82%
same,Growth Percent,UACC-62,48.46%
same,Growth Percent,OVCAR-5,61.79%
same,Growth Percent,NCI-H226,58.32%
same,Growth Percent,SNB-75,6.67%
same,Growth Percent,CCRF-CEM,24.00%

# Source: patent US8350062B2, “Synthesis and anticancer activity of new actin-targeting small-molecule agents” (priority 2009, dated 2013)
